Assay results as given in patent EP0420021B1, “Hydrophilic laminated porous membranes and methods of preparing same” (ABBOTT LABORATORIES, priority 1989, dated 1991).

Assay: Capillary wicking time of laminated membrane strip (hydrophilicity)
Assay type: physicochemical
Description: The terms "hydrophilic" and "wettable" are frequently used herein and are used interchangeably as antonyms for "hydrophobic". A number of procedures can be used to measure hydrophilicity. Since the membranes of the preferred embodiment resemble thin layer chromatograhic strips, hydrophilicity is here measured as the rate at which the solvent front traverses the membrane strips. Darcy's law provides a rate by relating the distance the front travels to the time t. For a fixed distance, L, the relevant measurement is the time taken for the front to reach L. A relative measure of hydrophilicity is given by comparing the time or "wicking" rate of treated laminated membranes against the time or wicking rate of untreated laminated membranes. Although relative hydrophilicity is sufficient, for purposes of this invention a membrane is considered "hydrophilic" if the flow rate is such that the front traverses a length compatible with visualizing a result (ie., 2 - 10 cm) in a time consistent with rapid diagnostic assays, (ie., less than 10 minutes and preferably less than 5 minutes).
[…] At various time intervals (0, 7, 14, 21, 28, 56, 84, 112, etc days) the hydrophilicity of the membrane was tested by immersing a strip of laminated membrane 1-3 mm into a test solution (0.1M Tris pH 7.4, 0.9% NaCl, phenol red) and measuring the time required for the solution front to migrate a distance of 5.4 cm. A more hydrophilic membrane requires a shorter time for the liquid to move 5.4 cm.

[1] = 0 days storage at 45° C, membrane treated with surfactant as example 4 Part E, laminated with Flexcon PM150C/V23/Poly SC9
[2] = 7 days storage at 45° C, surfactant-treated (example 4 Part E), Poly SC9 laminate
[3] = 14 days storage at 45° C, surfactant-treated (example 4 Part E), Poly SC9 laminate
[4] = 21 days storage at 45° C, surfactant-treated (example 4 Part E), Poly SC9 laminate
[5] = 28 days storage at 45° C, surfactant-treated (example 4 Part E), Poly SC9 laminate

Structure (SMILES)	Wicking Time to traverse 5.4 cm strip [1]	Wicking Time to traverse 5.4 cm strip [2]	Wicking Time to traverse 5.4 cm strip [3]	Wicking Time to traverse 5.4 cm strip [4]	Wicking Time to traverse 5.4 cm strip [5]	membrane wicking rate as a result of the treatment (Part B: surfactant 0.1% w/v from isopropanol)
CCCCCS(=O)(=O)O [pentane sulfonic acid]	4.1 min	5.5 min	5.4 min	5.6 min	5.6 min	
CCCCCCCCS(=O)(=O)O [octane sulfonic acid]	5.1 min	5.6 min	5.4 min	5.6 min	5.7 min	
CCCCCCCS(=O)(=O)O [heptane sulfonic acid]	4.9 min	5.3 min	5.2 min	5.2 min	5.3 min	

Continued, values first:

Wicking Time to traverse 5.4 cm strip [1]	Wicking Time to traverse 5.4 cm strip [2]	Wicking Time to traverse 5.4 cm strip [3]	Wicking Time to traverse 5.4 cm strip [4]	Wicking Time to traverse 5.4 cm strip [5]	membrane wicking rate as a result of the treatment (Part B: surfactant 0.1% w/v from isopropanol)	Structure (SMILES)
6.2 min	6.4 min	6.0 min	6.3 min	6.3 min		CCCCCCCCCCCCS(=O)(=O)O [dodecane sulfonic acid]
6.3 min	7.1 min	7.0 min	6.4 min	6.0 min		CCCCCCCCCCCCOS(=O)(=O)[O-].[Na+] [sodium dodecyl sulfate]
					decreased	CCCCCCCCCCCCCCCCO [cetyl alcohol]
5.7 min	6.4 min	6.0 min	6.3 min	6.2 min		CCCCCCCCCCS(=O)(=O)O [decane sulfonic acid]
